Data from patent publication US20080145340A1, “Neuroactive agents and methods of their use” (The University of Western Australia, priority 2005, published 2008).

Tests used:
Format in all cases: cell-based, rat
[1] = test system: primary cortical neuronal cultures; experiment: In vitro ischaemia/stroke model, transient oxygen glucose deprivation (Example 3); details: protein added (0.1-100 nM) at the time of in vitro ischaemia
[2] = test system: primary cortical neuronal cultures; experiment: Cumene oxidative stress injury model (Example 3); details: protein added (0.1-100 nM) at the time of cumene exposure
From the text: Adenovirus vectors were used to upregulate specific proteins in primary cortical neuronal cultures. cDNA for proteins of interest was obtained by RT-PCR and cloned into pGEM. Sequence verified cDNA clones were then used to construct recombinant adenoviruses expressing genes of interest under the control of the rous sarcoma virus (RSV) promoter and the woodchuck post-transcriptional regulatory element (WPRE). The recombinant viruses also express the reporter GFP under the control of the CMV promoter. Protein of interest expression in recombinant adenoviruses was confirmed in transfected HEK and/or neuronal cultures. Control viruses consisted of an adenovirus expressing RFP, no gene (empty vector) and the anti-apoptotic gene Bcl-xl. […]
Cumene induced oxidative stress was performed by removing media from neuronal culture wells and adding 100 μl DMEM/N2 medium containing different concentrations of cumene (20-25 μM). […] Neuronal viability was measured and analysed as described above.

[3] = test system: cortical neuronal cultures; experiment: Differential protein expression in preconditioned neuronal cultures, 2-D gel electrophoresis (Example 1); details: CHX 0.3 μg/ml for 24 h; MK801 1 μM for 30 min, then 12 h; versus untreated DIV 12 cultures
Description: Cortical tissue from E18-E19 rats was dissociated in Hibernate E medium (Invitrogen, Carlsbad, Calif., USA) supplemented with 1.3 mM L-cysteine, 10 units/ml papain (ICN, Costa Mesa, Calif., USA) and 50 units/ml DNase (Sigma, St. Louis, Mo., USA) and washed in cold Dulbecco's Modified Eagle Medium (Invitrogen)/10% horse serum.
Neurons were resuspended in Neurobasal (NB; Invitrogen)/2% B27 supplement (Invitrogen), the cell concentration was adjusted to 1.8 million neurons/2 ml and 2 ml inoculated into each well of a 6 well plate pretreated as described below.
Neuronal cultures were maintained in a CO2 incubator (5% CO2, 95% air balance, 98% humidity) at 37° C. […]
Total protein was isolated from control and preconditioned neuronal cultures at the times outlined above by removing all the media from wells and washing once with phosphate-buffered saline, before the addition of lysis buffer (7M urea, 2M thiourea, 40 mM tris-HCl, 1% sulfobetaine 3-10, 2% CHAPS, 65 mM DTT, 1% Bio-Lyte carrier ampholytes pH 3-10; Bio-Rad, Hercules, Calif., USA). […] Protein content was determined by amino acid analysis using Waters AccQ Tag chemistry (Millipore Corporation, Milford, Mass., USA) as previously described (Cohen et al., 1983, in: Angeletti, R. H. (Ed.), Techniques in Protein Chemistry IV, Academic Press, San Diego). […]

[4] = test system: cortical neuronal cultures; experiment: Cumene hydroperoxide oxidative stress, neuronal survival by MTS assay (Example 4); details: for neuronal survival following cumene exposure: cumene 25 μM, survival 24 h later, untreated 15%, FIG. 8A
Description: (§1) Neurons were resuspended in Neurobasal (NB; Invitrogen) containing 2% B27 supplement (B27; Invitrogen).
(§2) Neuronal cultures were maintained in a CO2 incubator (5% CO2, 95% air balance, 98% humidity) at 37° C.

[5] = test system: cortical neuronal cultures; experiment: In vitro ischemia, neuronal survival by MTS assay (Example 4); details: rhCyPA 100 nM; survival 24 h later; untreated 24%; FIG. 8B
Description: as §1, §2

ERK1 (p44) = experiment: rhCyPA mediated ERK1/2 phosphorylation time course, Western blot densitometry; details: rhCyPA 100 nM
Description: (§3) FIG. 7—time course of recombinant human (rh) CyPA mediated ERK1/2 phosphorylation in cortical neuronal cultures. Neuronal cultures were treated with rhCyPA (100 nM) for the indicated times. The resulting protein lysates were probed with antibody to detect phosphorylated ERK1/2 and then re-probed for total ERK1/2.
(§4) For protein extraction, brain tissue and cultured cells were lysed in buffer (50 mM Tris-HCl pH 7.5, 100 mM NaCl, 20 mM EDTA, 0.1% SDS, 0.2% deoxycholic acid, containing Complete™ protein inhibitor, Roche), vortexed briefly and clarified by centrifugation at 4° C. Protein concentrations were determined by the Bradford assay (Biorad, USA). Equivalent amounts of protein (5-10 μg per lane) were loaded and separated on 4-12% gradient SDS poly-acrylamide Bis-Tris mini-gels, (NuPAGE; Invitrogen) and transferred to a PVDF membrane. Membranes were blocked in PBS/T containing ovalbumin (1 mg/mL) for 1 min at room temperature before washing in PBS/T and PBS.
(§5) Membranes were incubated at 4° C. overnight in blocking solution containing primary antibody, washed and incubated in blocking solution containing HRP conjugated secondary antibody for 1 h at room temperature. Protein bands were detected using ECL Plus (Amersham, UK) and visualised by exposure to x-ray film (Hyperfilm; Amersham), scanned and quantified using NIH image. Primary antibodies used were; rabbit polyclonal anti-CyPA (1:25000; Biomol), mouse monoclonal anti-β-tubulin (0.5 μg/mL, Pharmingen, USA), mouse monoclonal anti-phospho ERK1/2 (1:5000; Santa Cruz), rabbit polyclonal anti-ERK1/2 (1:10000; Santa Cruz) and goat polyclonal anti-CD147 (1:10000; Santa Cruz). Secondary antibodies were donkey anti-rabbit IgG (1:25,000-1:50,000; Amersham), sheep anti-mouse IgG (1:10,000-1:20,000; Amersham) and rabbit anti-goat IgG (Zymed).
(§6) To determine if exogenously applied CyPA can mediate ERK1/2 activation we exposed neuronal cultures to rhCyPA protein (100 nM) and the results are summarised in FIG. 7. Addition of rhCyPA induced a rapid phosphorylation of ERK1 and ERK2, which peaked at 5 min, before returning to basal levels.

ERK2 (p42) = experiment: as above; details: rhCyPA 100 nM
Description: as §3, §4, §5, §6

CyPA protein: CyPA protein suspended in PBS, added to neuronal cultures (0.1-100 nM)
neuroprotection against in vitro ischaemia [1]: neuroprotective | neuroprotection against cumene insult [2]: neuroprotective

C[C@@H]1C[C@@H]([C@H](O)CC2CC(=O)NC(=O)C2)C(=O)[C@@H](C)C1 [CHX, cycloheximide]
overall change of protein expression after preconditioning [3]: protein down-regulation

CC(C)c1ccccc1.OO [cumene, cumene hydroperoxide, reference compound]
cell survival after exposure to cumene ([4]; 25 μM cumene, dose response experiment, data not shown): 15-30%

rhCyPA: recombinant human cyclophilin A (rhCyPA, Biomol)
neuronal survival following in vitro ischemia [5]: 35% | ERK1 (p44) activation increase (ERK1 (p44); at 5 min, FIG. 7): 2.6 fold | time of peak phosphorylation of ERK1 (ERK1 (p44); then returning to basal levels): 5 min | ERK2 (p42) activation increase (ERK2 (p42); at 5 min, FIG. 7): 3.3 fold | time of peak phosphorylation of ERK2 (ERK2 (p42); then returning to basal levels): 5 min | neuronal survival following cumene exposure ([4]; rhCyPA 10 nM): 56% | neuronal survival following cumene exposure ([4]; rhCyPA 100 nM): 70%

C[C@]12N[C@H](Cc3ccccc31)c1ccccc12 [MK801]
overall change of protein expression after preconditioning [3]: protein down-regulation
